{"source": "patent US9809640B2", "about": "“ApoE peptide dimers and uses thereof” (priority 2010, dated 2017)", "key": {"PDK1": {"tested_on": "PDK1", "test": "PDK1 activation, Western blot", "type": "cell-based", "settings": "U87 and MB231", "text": "(§1) FIGS. 10A-10B. […] FIG. 10A: Western blot analysis of U87 glioblastoma cells exposed to the indicated concentrations of COG445 peptide in the presence of EGF. The blot is probed with antibodies for the activated EGF receptor (P-EGFR), total EGF receptor, activated PDK1 (P-PDK1), and total PDK1. FIG. 10B: Western blot and densitometry analysis of Akt activation induced by EGF in U87 cells in the presence of increasing concentrations of COG445.\n(§2) Akt signaling is often dysregulated in cancers thereby promoting cellular survival and proliferation. […] Given the effect of ApoE peptides on other inflammatory pathologies, we investigated the effect of an ApoE peptide dimer on Akt signaling in breast and brain cancer cells. A disulfide dimer of COG112 (SEQ ID NO: 1) was prepared as described in Example 1 (COG445). Adherent breast cancer cells, MDA-MB-231 (MB231), or glioblastoma cells, U87-MG (U87), were serum starved overnight and then exposed to COG445 for 2 hours before stimulating with epidermal growth factor (EGF) for 5 minutes. […] EGFR activation results in the activation of the PI3K/Akt signaling pathway, which is mediated by PDK1 activation."}, "PP2A": {"tested_on": "PP2A", "test": "PP2A activity in 32D:BCR/Abl chronic myelogenous leukemia cells (PP2A immunoprecipitation assay)", "type": "cell-based", "settings": "1 μM, 32D:BCR/Abl cells", "method": "FIGS. 4A-4B. The BMOE-linked dimer peptide COG449 activates PP2A in CML cells. FIG. 4A: 32D-BCR/Abl chronic myelogenous leukemia cells were treated with COG449 (1 μM), COG445 (1 μM) (disulfide-linked COG112 dimer) or no treatment, and the PP2A activity was measured. FIG. 4B: 32D:BCR/Abl cell cultures were treated with no compound, 1 μM COG449, or 5 μM FTY720 for 30 minutes followed by lysis in an NP40 lysis buffer. PP2A was immunoprecipitated and assayed with the PP2A Immunoprecipitation assay kit (Upstate) according to the manufacturer's directions.\nTo further evaluate the effect of COG449, we measured the ability of the stable dimerized COG449 compound to activate PP2A in 32D:p210^BCR/Abl chronic myelogenous leukemia cells. […] 32D:p210^BCR/Abl chronic myelogenous leukemia cells were treated with no compound, 1 μM COG449, or 5 μM FTY720. We observed a robust increase of approximately 45% relative specific activity (phosphate release/minute/unit protein) of PP2A upon treatment with COG449 alone when compared to the untreated control, and about 20% activation compared with FTY720 (FIG. 4B)."}, "EGFR": {"tested_on": "EGFR", "test": "EGF-induced EGFR activation, Western blot", "type": "cell-based", "settings": "up to 1 μM, U87 and MB231, EGF", "text": "as §1, §2"}, "[1]": {"test": "Mouse toxicity, maximum tolerated dose by intravenous injection", "settings": "in vivo, maximum dose by intravenous injection without deaths after 24 hrs"}, "[2]": {"tested_on": "MDA-MB-231 breast cancer cells", "type": "cell-based", "settings": "MB231, ~24 hours", "method": "(§3) FIG. 14A: Dose response curve of COG445 on proliferation of U87 (open circles) and MDA-MB-231 (filled circles) cells as measured by MTT reduction. FIG. 14B: Dose response curve of COG445 on proliferation of MDA-MB-231 cells as measured by cell count.\nNext, we examined the potency of an ApoE peptide dimer versus the monomeric form on proliferation of the MDA-MB-231 breast cancer cell line. MDA-MB-231 cells were treated with various concentrations of either COG435 (monomer; SEQ ID NO: 90) or COG493 (a BMOE-linked dimer of COG 435) peptides for 48 hours. Following peptide treatment, cells were quantified using a MTT assay.\n(§4) Because COG445 inhibited Akt activation and downstream signaling, we examined the effects of COG445 on cellular proliferation. Adherent MB231 and U87 cells were grown for ˜24 hours in the presence of COG445 and cellular proliferation was measured by MTT reduction. […] Furthermore, COG445 inhibited MB231 cellular proliferation as determined by cell count (FIG. 14B). Approximately 6×10^4 cells were plated in growth media (RPMI+10% FBS) for 24-hours with increasing concentrations of COG445. […] However at concentrations ≧1 μM COG445, there appears to be a loss of cells. This is partially explained by decreased proliferation, although it is possible that the rate of cellular degradation was increased in the presence of COG445."}, "Akt": {"tested_on": "Akt", "test": "EGF-induced Akt activation, Western blot", "type": "cell-based", "text": "as §1, §2"}, "U87MG glioblastoma cells": {"tested_on": "U87MG glioblastoma cells", "type": "cell-based", "settings": "U87, ~24 hours"}, "MDA-MB-231 cells": {"tested_on": "MDA-MB-231 cells", "test": "MB231 cellular proliferation by cell count", "type": "cell-based", "method": "as §3, §4"}}, "note": "Positions of bridges follow the written chain, without caps; N, C: chain ends. Chains are numbered I, II in the order given."}
{"substance": "I: Ac-RQIKIWFQNRRMKWKKCLRVRLASHLRKLRKRLL-NH2 / II: Ac-RQIKIWFQNRRMKWKKCLRVRLASHLRKLRKRLL-NH2 (disulfide I:17-II:17) [COG445, COG112-C-C-COG112]", "values": [{"measurement": "PDK1 activation (serine 241 phosphorylation)", "setting": "PDK1", "result": "did not alter"}, {"measurement": "phosphate release due to activation of PP2A relative to untreated control cells", "setting": "PP2A", "result": "increased phosphate release"}, {"measurement": "EGFR activation (tyrosine 1045 phosphorylation)", "setting": "EGFR", "result": "did not alter"}, {"measurement": "MTD at 24 h", "setting": "[1]", "result": 28, "unit": "mg/kg"}, {"measurement": "proliferation by MTT reduction", "setting": "[2]", "result": "dose-dependent decrease"}, {"measurement": "Akt serine 473 phosphorylation", "setting": "Akt; 100 nM, both cell lines, significant at 1 μM", "result": "decreased"}, {"measurement": "Akt activation", "setting": "Akt; MB231 and U87 cells, EGF", "result": "dose-dependent decrease"}, {"measurement": "Akt phosphorylation in the presence of okadaic acid", "setting": "Akt; MB231 cells", "result": "did not inhibit"}, {"measurement": "proliferation by MTT reduction", "setting": "U87MG glioblastoma cells", "result": "dose-dependent decrease"}, {"measurement": "cellular proliferation by cell count", "setting": "MDA-MB-231 cells; 0.1 μM", "result": "slight decrease"}, {"measurement": "cellular proliferation by cell count", "setting": "MDA-MB-231 cells; 24 hours", "result": "inhibited"}, {"measurement": "cell count", "setting": "MDA-MB-231 cells; ≧1 μM", "result": "loss of cells"}]}
